Results from patent US10662229B2, “Spider venom peptides and methods of use for modulating sodium channels” (priority 2016, dated 2020).
Where a SMILES comes first, the peptide text is derived from it. Bridges are numbered along the chain shown (N, C = ends).

Assays:
Format in all cases: cell-based
hNav1.3 = target: T1, hNav1.3 (Homo sapiens, UniProt Q9NY46); test: FLIPR membrane potential assay, hNav1.3; conditions: for Selectivity for Nav1.7, Nav subtype 1.3: membrane potential assay
T1 construct: host or cells: HEK293
Method: (§1) HEK293 cells stably expressing hNav1.1, hNav1.2, hNav1.3, hNav1.4, hNav1.5, hNav1.6, hNav1.7 and […] (SB Drug Discovery, Glasgow, UK) were cultured in minimum essential media (MEM) containing 10% v/v FBS supplemented with L-glutamine (2 mM) and selection antibiotics G-418 (0.5 mg/mL), blasticidin (2-4 μg/mL) and zeocin (0.5 mg/mL) as recommended by the manufacturer. CHO cells stably expressing hNav1.8 in a tetracycline-inducible system (Chantest, OH, USA) were cultured in Ham's F-12 containing 10% v/v FBS and selection antibiotics as recommended by the manufacturer. To induce hNav1.8 expression, cells were cultured in the presence of tetracycline (1 μg/mL) for 24 h at 27° C. Cells were grown in a humidified 5% CO2 incubator at 37° C., grown to 70-80% confluence, and passaged every 3-4 days using TrypLE Express (Invitrogen).
(§2) Cells were plated 48 h before the assay on 384-well black walled imaging plates at a density of 10,000 to 15,000 cells per well and were loaded with red membrane potential dye for 30 min at 37° C. (Molecular Devices, CA, USA). One vial of bulk red membrane potential dye was reconstituted to a 10× stock solution with PSS and stored at −20° C. and diluted to 1× solution with PSS on the day of the assay. […] Changes in membrane potential were assessed using the FLIPR^TETRA (excitation 515 to 545 nm, emission 565 to 625 nm) every second for 300 s after adding agonists.

hNav1.2 = target: T2, hNav1.2 (Homo sapiens, UniProt Q99250); test: FLIPR membrane potential assay, hNav1.2; conditions: for Selectivity for Nav1.7, Nav subtype 1.2: membrane potential assay
T2 construct: host or cells: HEK293
Method: as §1, §2

hNav1.8 = target: T3, hNav1.8 (Homo sapiens, UniProt Q9Y5Y9); test: FLIPR membrane potential assay, hNav1.8; conditions: for Selectivity for Nav1.7, Nav subtype 1.8: membrane potential assay
T3 construct: host or cells: HEK293
Method: as §1, §2

hNav1.4 = target: T4, hNav1.4 (Homo sapiens, UniProt P35499); test: FLIPR membrane potential assay, hNav1.4; conditions: for Selectivity for Nav1.7, Nav subtype 1.4: membrane potential assay
T4 construct: host or cells: HEK293
Method: as §1, §2

hNav1.5 = target: T5, hNav1.5 (Homo sapiens, UniProt Q14524); test: FLIPR membrane potential assay, hNav1.5; conditions: for Selectivity for Nav1.7, Nav subtype 1.5: membrane potential assay
T5 construct: host or cells: HEK293
Method: as §1, §2

hNav1.1 = target: T6, hNav1.1 (Homo sapiens, UniProt P35498); test: FLIPR membrane potential assay, hNav1.1; conditions: for Selectivity for Nav1.7, Nav subtype 1.1: membrane potential assay
T6 construct: host or cells: HEK293
Method: as §1, §2

hNav1.6 = target: T7, hNav1.6 (Homo sapiens, UniProt Q9UQD0); test: FLIPR membrane potential assay, hNav1.6; conditions: for Selectivity for Nav1.7, Nav subtype 1.6: membrane potential assay
T7 construct: host or cells: HEK293
Method: as §1, §2

hNav1.7 = target: T8, hNav1.7 (Homo sapiens, UniProt Q15858); test: FLIPR membrane potential assay, hNav1.7; conditions: for Selectivity for Nav1.7, Nav subtype 1.7: membrane potential assay, reference subtype
T8 construct: host or cells: HEK293
Method: as §1, §2

T5 sequence (Q14524 whole entry): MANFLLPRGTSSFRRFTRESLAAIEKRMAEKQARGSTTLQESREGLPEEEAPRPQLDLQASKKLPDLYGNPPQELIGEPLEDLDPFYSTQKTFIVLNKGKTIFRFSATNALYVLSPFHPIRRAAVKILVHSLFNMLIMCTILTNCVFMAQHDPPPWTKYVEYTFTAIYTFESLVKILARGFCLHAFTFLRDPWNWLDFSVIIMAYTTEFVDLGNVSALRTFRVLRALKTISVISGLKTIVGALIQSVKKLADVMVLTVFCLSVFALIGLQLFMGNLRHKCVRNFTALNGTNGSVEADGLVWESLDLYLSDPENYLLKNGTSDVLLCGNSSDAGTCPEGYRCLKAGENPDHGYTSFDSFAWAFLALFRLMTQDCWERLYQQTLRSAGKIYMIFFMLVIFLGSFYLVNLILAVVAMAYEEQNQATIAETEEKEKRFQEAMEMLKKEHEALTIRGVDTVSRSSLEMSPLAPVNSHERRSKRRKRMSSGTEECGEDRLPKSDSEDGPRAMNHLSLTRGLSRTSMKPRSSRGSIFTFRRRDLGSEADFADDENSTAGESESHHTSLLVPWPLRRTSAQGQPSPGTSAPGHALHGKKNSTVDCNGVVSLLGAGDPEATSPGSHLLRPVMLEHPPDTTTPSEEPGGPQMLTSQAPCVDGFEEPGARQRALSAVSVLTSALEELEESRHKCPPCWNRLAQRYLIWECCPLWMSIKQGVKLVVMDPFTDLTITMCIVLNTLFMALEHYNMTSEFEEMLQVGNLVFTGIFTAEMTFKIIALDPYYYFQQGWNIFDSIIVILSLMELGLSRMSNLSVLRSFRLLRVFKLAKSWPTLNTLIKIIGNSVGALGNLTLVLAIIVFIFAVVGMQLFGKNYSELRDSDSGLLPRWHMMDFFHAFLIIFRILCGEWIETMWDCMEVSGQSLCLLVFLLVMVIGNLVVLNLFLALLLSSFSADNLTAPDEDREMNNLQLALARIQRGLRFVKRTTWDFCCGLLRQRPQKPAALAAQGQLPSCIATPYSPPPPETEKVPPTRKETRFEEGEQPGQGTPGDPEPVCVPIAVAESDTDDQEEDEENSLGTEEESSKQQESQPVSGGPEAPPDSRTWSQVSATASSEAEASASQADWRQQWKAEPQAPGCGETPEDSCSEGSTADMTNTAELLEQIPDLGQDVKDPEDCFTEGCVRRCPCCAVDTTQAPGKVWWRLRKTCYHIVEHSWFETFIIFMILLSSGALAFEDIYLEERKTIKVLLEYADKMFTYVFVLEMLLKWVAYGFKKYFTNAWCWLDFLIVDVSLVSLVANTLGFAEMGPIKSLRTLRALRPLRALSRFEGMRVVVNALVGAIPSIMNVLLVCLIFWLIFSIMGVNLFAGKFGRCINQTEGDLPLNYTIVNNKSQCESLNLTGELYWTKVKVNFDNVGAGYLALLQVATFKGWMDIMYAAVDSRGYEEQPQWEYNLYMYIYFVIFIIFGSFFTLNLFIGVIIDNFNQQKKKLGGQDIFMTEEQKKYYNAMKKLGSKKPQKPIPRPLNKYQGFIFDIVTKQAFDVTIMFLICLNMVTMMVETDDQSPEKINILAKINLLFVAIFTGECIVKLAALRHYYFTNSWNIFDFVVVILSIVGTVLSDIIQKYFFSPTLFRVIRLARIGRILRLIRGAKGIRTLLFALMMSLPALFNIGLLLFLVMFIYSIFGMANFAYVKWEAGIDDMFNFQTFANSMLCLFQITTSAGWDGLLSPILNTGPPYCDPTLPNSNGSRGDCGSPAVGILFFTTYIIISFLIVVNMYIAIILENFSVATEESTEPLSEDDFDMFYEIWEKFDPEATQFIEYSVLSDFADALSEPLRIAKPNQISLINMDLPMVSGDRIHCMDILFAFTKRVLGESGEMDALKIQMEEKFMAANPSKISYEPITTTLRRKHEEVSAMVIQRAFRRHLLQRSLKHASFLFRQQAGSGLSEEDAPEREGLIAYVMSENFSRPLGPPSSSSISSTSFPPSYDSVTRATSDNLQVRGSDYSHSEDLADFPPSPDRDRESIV
T1 sequence (Q9NY46 whole entry): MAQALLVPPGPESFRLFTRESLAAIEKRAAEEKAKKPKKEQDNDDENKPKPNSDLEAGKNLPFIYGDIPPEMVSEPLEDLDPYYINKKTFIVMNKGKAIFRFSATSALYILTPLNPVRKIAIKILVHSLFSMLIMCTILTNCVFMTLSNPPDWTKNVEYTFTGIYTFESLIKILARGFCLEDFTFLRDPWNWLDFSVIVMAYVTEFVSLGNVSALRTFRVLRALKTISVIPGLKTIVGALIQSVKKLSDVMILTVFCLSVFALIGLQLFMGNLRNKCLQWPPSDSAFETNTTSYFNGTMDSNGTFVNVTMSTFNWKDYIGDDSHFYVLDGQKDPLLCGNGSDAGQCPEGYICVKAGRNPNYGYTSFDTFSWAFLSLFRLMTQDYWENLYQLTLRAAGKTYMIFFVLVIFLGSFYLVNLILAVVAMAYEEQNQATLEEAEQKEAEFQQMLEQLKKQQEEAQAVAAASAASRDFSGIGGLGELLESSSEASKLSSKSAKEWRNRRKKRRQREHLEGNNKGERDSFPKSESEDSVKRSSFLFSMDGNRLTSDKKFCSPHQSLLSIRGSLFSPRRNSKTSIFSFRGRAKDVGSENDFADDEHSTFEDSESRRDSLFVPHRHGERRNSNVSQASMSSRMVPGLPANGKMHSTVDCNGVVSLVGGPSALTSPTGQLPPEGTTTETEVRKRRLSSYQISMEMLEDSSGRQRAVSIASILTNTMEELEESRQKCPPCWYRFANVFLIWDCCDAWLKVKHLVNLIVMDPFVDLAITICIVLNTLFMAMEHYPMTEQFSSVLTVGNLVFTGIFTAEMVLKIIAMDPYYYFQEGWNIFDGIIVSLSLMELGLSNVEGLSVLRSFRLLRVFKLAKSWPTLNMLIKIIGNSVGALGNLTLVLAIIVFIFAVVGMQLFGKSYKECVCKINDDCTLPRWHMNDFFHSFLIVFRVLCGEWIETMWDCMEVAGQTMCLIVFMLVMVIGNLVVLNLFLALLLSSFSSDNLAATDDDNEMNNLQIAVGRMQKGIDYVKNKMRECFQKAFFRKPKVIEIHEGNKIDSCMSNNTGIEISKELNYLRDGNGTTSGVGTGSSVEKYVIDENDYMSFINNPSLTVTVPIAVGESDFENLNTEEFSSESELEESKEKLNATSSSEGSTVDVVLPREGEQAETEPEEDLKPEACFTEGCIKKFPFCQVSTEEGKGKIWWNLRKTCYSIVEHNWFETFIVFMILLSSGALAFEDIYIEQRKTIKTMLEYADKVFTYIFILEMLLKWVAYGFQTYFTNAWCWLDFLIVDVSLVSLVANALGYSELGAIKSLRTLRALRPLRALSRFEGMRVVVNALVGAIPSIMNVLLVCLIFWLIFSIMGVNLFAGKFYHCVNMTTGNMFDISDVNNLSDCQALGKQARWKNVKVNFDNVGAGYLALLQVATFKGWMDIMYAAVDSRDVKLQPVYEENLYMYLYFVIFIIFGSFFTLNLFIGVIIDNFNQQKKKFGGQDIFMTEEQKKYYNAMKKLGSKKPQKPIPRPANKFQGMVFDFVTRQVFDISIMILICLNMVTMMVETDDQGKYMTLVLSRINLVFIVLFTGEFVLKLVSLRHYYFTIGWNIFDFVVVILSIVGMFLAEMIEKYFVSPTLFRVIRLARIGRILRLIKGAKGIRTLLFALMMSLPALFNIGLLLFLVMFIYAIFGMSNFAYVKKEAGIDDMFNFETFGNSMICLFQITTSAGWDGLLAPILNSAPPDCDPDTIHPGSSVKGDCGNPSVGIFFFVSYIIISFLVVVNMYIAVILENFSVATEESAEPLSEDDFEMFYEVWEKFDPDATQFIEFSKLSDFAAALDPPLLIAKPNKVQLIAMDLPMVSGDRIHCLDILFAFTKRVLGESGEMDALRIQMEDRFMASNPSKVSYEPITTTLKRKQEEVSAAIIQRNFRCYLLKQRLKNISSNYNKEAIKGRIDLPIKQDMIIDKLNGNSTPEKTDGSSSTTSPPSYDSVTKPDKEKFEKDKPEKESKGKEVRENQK

| Structure (SMILES) | IC50 (hNav1.3) | IC50 (hNav1.2) | IC50 (hNav1.8) | IC50 (hNav1.4) | IC50 (hNav1.5) | IC50 (hNav1.1) | IC50 (hNav1.6) | Selectivity for Nav1.7, Nav subtype 1.3 (hNav1.3) | Selectivity for Nav1.7, Nav subtype 1.2 (hNav1.2) | Selectivity for Nav1.7, Nav subtype 1.8 (hNav1.8) | Selectivity for Nav1.7, Nav subtype 1.4 (hNav1.4) | IC50 (hNav1.7) | Selectivity for Nav1.7, Nav subtype 1.7 (hNav1.7) | Selectivity for Nav1.7, Nav subtype 1.5 (hNav1.5) | Selectivity for Nav1.7, Nav subtype 1.1 (hNav1.1) | Selectivity for Nav1.7, Nav subtype 1.6 (hNav1.6) |
| --- | --- | --- | --- | --- | --- | --- | --- | --- | --- | --- | --- | --- | --- | --- | --- | --- |
| CSCC[C@@H]1NC(=O)[C@H](Cc2ccc(O)cc2)NC(=O)[C@H](CCCNC(=N)N)NC(=O)[C@@H](NC(=O)[C@H](CC(=O)O)NC(C)=O)CSSC[C@@H]2NC(=O)[C@@H]3CSSC[C@@H](C(=O)N[C@@H](C)C(=O)N[C@@H](Cc4c[nH]c5ccccc45)C(=O)N[C@@H](CC(=O)O)C(=O)N[C@@H](Cc4ccccc4)C(=O)N[C@H](C(=O)N[C@@H](Cc4ccccc4)C(=O)N[C@H](C(=O)O)[C@@H](C)O)[C@@H](C)O)NC(=O)[C@H](Cc4ccc(O)cc4)NC(=O)[C@H](CCCCN)NC(=O)[C@H](CCSC)NC(=O)[C@H](CCCCN)NC(=O)[C@H](CCCNC(=N)N)NC(=O)[C@H](CCCCN)NC(=O)[C@H](CSSC[C@H](NC(=O)[C@H](CC(=O)O)NC(=O)CNC(=O)[C@H](Cc4ccccc4)NC1=O)C(=O)N[C@@H](CCC(=O)O)C(=O)N[C@@H](CCCCN)C(=O)N[C@@H](CC(=O)O)C(=O)N[C@@H](CCC(=O)O)C(=O)N[C@@H](CC(=O)O)C(=O)N3)NC(=O)CNC(=O)[C@H](CC(C)C)NC(=O)[C@H](Cc1c[nH]cn1)NC(=O)[C@H](CCCCN)NC2=O [Ac-Pnc1a] | 8 µM | 5 µM | > 30 µM | 14 µM | > 30 µM | 23 µM | 16 µM | – | – | – | – | – | – | – | – | – |
| CSCC[C@@H]1NC(=O)[C@H](Cc2ccc(O)cc2)NC(=O)[C@H](CCCNC(=N)N)NC(=O)[C@@H](NC(=O)[C@@H](N)CC(=O)O)CSSC[C@@H]2NC(=O)[C@@H]3CSSC[C@@H](C(=O)N[C@@H](C)C(=O)N[C@@H](Cc4c[nH]c5ccccc45)C(=O)N[C@@H](CC(=O)O)C(=O)N[C@@H](Cc4ccccc4)C(=O)N[C@H](C(=O)N[C@@H](Cc4ccccc4)C(=O)N[C@H](C(N)=O)[C@@H](C)O)[C@@H](C)O)NC(=O)[C@H](Cc4ccc(O)cc4)NC(=O)[C@H](CCCCN)NC(=O)[C@H](CCSC)NC(=O)[C@H](CCCCN)NC(=O)[C@H](CCCNC(=N)N)NC(=O)[C@H](CCCCN)NC(=O)[C@H](CSSC[C@H](NC(=O)[C@H](CC(=O)O)NC(=O)CNC(=O)[C@H](Cc4ccccc4)NC1=O)C(=O)N[C@@H](CCC(=O)O)C(=O)N[C@@H](CCCCN)C(=O)N[C@@H](CC(=O)O)C(=O)N[C@@H](CCC(=O)O)C(=O)N[C@@H](CC(=O)O)C(=O)N3)NC(=O)CNC(=O)[C@H](CC(C)C)NC(=O)[C@H](Cc1c[nH]cn1)NC(=O)[C@H](CCCCN)NC2=O [Pnc1a-CONH2] | 7 µM | 3 µM | > 30 µM | 16 µM | > 30 µM | 8 µM | 20 µM | – | – | – | – | – | – | – | – | – |
| CSCC[C@@H]1NC(=O)[C@H](Cc2ccc(O)cc2)NC(=O)[C@H](CCCNC(=N)N)NC(=O)[C@@H](NC(=O)[C@H](CC(=O)O)NC(=O)[C@@H](N)CO)CSSC[C@@H]2NC(=O)[C@@H]3CSSC[C@@H](C(=O)N[C@@H](C)C(=O)N[C@@H](Cc4c[nH]c5ccccc45)C(=O)N[C@@H](CC(=O)O)C(=O)N[C@@H](Cc4ccccc4)C(=O)N[C@H](C(=O)N[C@@H](Cc4ccccc4)C(=O)N[C@H](C(=O)O)[C@@H](C)O)[C@@H](C)O)NC(=O)[C@H](Cc4ccc(O)cc4)NC(=O)[C@H](CCCCN)NC(=O)[C@H](CCSC)NC(=O)[C@H](CCCCN)NC(=O)[C@H](CCCNC(=N)N)NC(=O)[C@H](CCCCN)NC(=O)[C@H](CSSC[C@H](NC(=O)[C@H](CC(=O)O)NC(=O)CNC(=O)[C@H](Cc4ccccc4)NC1=O)C(=O)N[C@@H](CCC(=O)O)C(=O)N[C@@H](CCCCN)C(=O)N[C@@H](CC(=O)O)C(=O)N[C@@H](CCC(=O)O)C(=O)N[C@@H](CC(=O)O)C(=O)N3)NC(=O)CNC(=O)[C@H](CC(C)C)NC(=O)[C@H](Cc1c[nH]cn1)NC(=O)[C@H](CCCCN)NC2=O [S0-Pnc1a] (H-SDCRYMFGDCEKDEDCCKHLGCKRKMKYCAWDFTFT-OH; disulfide 3-17, 10-22, 16-29) | 6 µM | 3 µM | > 30 µM | 11 µM | > 30 µM | 9 µM | 19 µM | 22 | 10 | >107 | 40 | 282 nM | 1 | >107 | 32 | 68 |
| CSCC[C@@H]1NC(=O)[C@H](Cc2ccc(O)cc2)NC(=O)[C@H](CCCNC(=N)N)NC(=O)[C@@H](NC(=O)[C@@H](N)CCCCN)CSSC[C@@H]2NC(=O)[C@@H]3CSSC[C@@H](C(=O)N[C@@H](C)C(=O)N[C@@H](Cc4c[nH]c5ccccc45)C(=O)N[C@@H](CC(=O)O)C(=O)N[C@@H](Cc4ccccc4)C(=O)N[C@H](C(=O)N[C@@H](Cc4ccccc4)C(=O)N[C@H](C(=O)O)[C@@H](C)O)[C@@H](C)O)NC(=O)[C@H](Cc4ccc(O)cc4)NC(=O)[C@H](CCCCN)NC(=O)[C@H](CCSC)NC(=O)[C@H](CCCCN)NC(=O)[C@H](CCCNC(=N)N)NC(=O)[C@H](CCCCN)NC(=O)[C@H](CSSC[C@H](NC(=O)[C@H](CC(=O)O)NC(=O)CNC(=O)[C@H](Cc4ccccc4)NC1=O)C(=O)N[C@@H](CCC(=O)O)C(=O)N[C@@H](CCCCN)C(=O)N[C@@H](CC(=O)O)C(=O)N[C@@H](CCC(=O)O)C(=O)N[C@@H](CC(=O)O)C(=O)N3)NC(=O)CNC(=O)[C@H](CC(C)C)NC(=O)[C@H](Cc1c[nH]cn1)NC(=O)[C@H](CCCCN)NC2=O [[D1K]Pnc1a] (H-KCRYMFGDCEKDEDCCKHLGCKRKMKYCAWDFTFT-OH; disulfide 2-16, 9-21, 15-28) | 4 µM | 0.261 µM | > 30 µM | 3 µM | > 30 µM | 0.754 µM | > 30 µM | 134 | 8 | >900 | 86 | 31 nM | 1 | >900 | 24 | >900 |
| CSCC[C@@H]1NC(=O)[C@H](Cc2ccc(O)cc2)NC(=O)[C@H](CCCNC(=N)N)NC(=O)[C@@H](NC(=O)[C@@H](N)CC(=O)O)CSSC[C@@H]2NC(=O)[C@@H]3CSSC[C@@H](C(=O)N[C@@H](C)C(=O)N[C@@H](Cc4c[nH]c5ccccc45)C(=O)N[C@@H](CC(=O)O)C(=O)N[C@@H](Cc4ccccc4)C(=O)N[C@H](C(=O)N[C@@H](Cc4ccccc4)C(=O)N[C@H](C(=O)O)[C@@H](C)O)[C@@H](C)O)NC(=O)[C@H](Cc4ccc(O)cc4)NC(=O)[C@H](CCCCN)NC(=O)[C@H](CCSC)NC(=O)[C@H](CCCCN)NC(=O)[C@H](CCCNC(=N)N)NC(=O)[C@H](CCCCN)NC(=O)[C@H](CSSC[C@H](NC(=O)[C@H](CC(=O)O)NC(=O)CNC(=O)[C@H](Cc4ccccc4)NC1=O)C(=O)N[C@@H](CCC(=O)O)C(=O)N[C@@H](CCCCN)C(=O)N[C@@H](CC(=O)O)C(=O)N[C@@H](CCCCN)C(=O)N[C@@H](CC(=O)O)C(=O)N3)NC(=O)CNC(=O)[C@H](CC(C)C)NC(=O)[C@H](Cc1c[nH]cn1)NC(=O)[C@H](CCCCN)NC2=O [[E13K]Pnc1a] (H-DCRYMFGDCEKDKDCCKHLGCKRKMKYCAWDFTFT-OH; disulfide 2-16, 9-21, 15-28) | 6 µM | 0.378 µM | > 30 µM | 2 µM | > 30 µM | – | 1 µM | 66 | 4 | >300 | 27 | – | 1 | >300 | – | 14 |
